Experimental data as given in PMC4019573, “Characterization of Protein Phosphatase 5 from Three Lepidopteran Insects: Helicoverpa armigera, Mythimna separata and Plutella xylostella” (PLoS ONE, 2014).

Assays:
[1] = biological target: T1, recombinant HaPP5 (Helicoverpa armigera, UniProt A0A059TAS5); experiment: Arachidonic acid stimulation assay and kinetics of recombinant HaPP5, pNPP as substrate; format: biochemical
T1 sequence (A0A059TAS5 1-490): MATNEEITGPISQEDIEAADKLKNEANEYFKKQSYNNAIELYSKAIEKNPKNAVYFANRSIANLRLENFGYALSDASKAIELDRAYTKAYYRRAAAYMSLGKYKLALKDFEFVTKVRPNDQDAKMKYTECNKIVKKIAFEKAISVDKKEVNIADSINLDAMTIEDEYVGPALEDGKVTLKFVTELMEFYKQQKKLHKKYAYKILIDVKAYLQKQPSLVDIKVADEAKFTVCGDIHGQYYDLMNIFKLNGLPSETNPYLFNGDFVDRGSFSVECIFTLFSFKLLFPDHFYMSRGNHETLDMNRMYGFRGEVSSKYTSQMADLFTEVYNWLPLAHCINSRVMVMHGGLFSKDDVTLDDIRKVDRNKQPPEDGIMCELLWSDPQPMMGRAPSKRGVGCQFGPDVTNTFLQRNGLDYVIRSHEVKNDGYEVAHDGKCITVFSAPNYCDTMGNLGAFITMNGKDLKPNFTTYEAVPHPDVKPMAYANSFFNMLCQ
Source text: (§1) Non-enzyme samples were taken as controls.

[2] = test system: E. coli expressed PP5 from P. falciparum; parameters: method as in PMID 11897131; settings: cited from earlier work
[3] = test system: E. coli expressed PP5 from E. chinensis; parameters: method as in PMID 24351830; settings: cited from earlier work
[4] = biological target: T2, recombinant MsPP5 (Mythimna separata, UniProt A0A059TAW5); experiment: Arachidonic acid stimulation assay and kinetics of recombinant MsPP5, pNPP as substrate; format: biochemical
T2 sequence (A0A059TAW5 1-490): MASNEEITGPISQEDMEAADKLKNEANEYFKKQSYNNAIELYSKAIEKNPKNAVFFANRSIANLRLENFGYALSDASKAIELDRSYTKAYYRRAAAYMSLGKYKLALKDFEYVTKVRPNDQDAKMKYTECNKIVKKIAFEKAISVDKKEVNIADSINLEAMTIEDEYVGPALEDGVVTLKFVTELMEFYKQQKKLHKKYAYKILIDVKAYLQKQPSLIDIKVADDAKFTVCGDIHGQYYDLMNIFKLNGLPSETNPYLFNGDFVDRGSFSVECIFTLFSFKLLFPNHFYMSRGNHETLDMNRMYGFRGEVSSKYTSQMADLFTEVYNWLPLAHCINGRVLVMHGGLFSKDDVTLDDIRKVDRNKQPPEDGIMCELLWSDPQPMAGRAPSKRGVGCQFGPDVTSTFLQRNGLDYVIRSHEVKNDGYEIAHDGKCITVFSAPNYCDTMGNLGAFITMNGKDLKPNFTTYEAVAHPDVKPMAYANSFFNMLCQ
Source text: as §1

[5] = test system: E. coli expressed PP5 from T. brucei; parameters: method as in PMID 11290414; settings: cited from earlier work
[6] = test system: total crude protein phosphatases; experiment: Arachidonic acid stimulation of crude PPP extracts, phosphopeptides as substrate; format: biochemical, H. armigera, M. separata and P. xylostella; settings: larvae extracts of three insects
Method: (§2) One gram of 4th instar larvae of each insects were ground into a homogeneous state in ice-cold 20 mM Tris (pH = 7.5), 0.1% β-mercaptoethanol, 1 mM EDTA, 1 mM benzamidine and 1 mM (PMSF). This was then centrifuged at 12,000 g for 30 min at 4°C. The supernatant extract was desalted using Sephadex G-25 spin columns (GE Healthcare, Boston, MA, USA) to remove the contaminating free phosphate as described in the instruction manual. Each insect extract contained three biological replicates. Protein concentration was estimated using the method of Bradford.
(§3) Phosphatases activity of crude extract was determined towards phosphopeptides using PPP assay kit (Promega, Madison, WI, USA) in half-area 96-well plates (Corning, NY, USA) following the manual instruction. In brief, 1.0 µg protein was mixed in assay buffer of 50 mM imidazole (pH 7.2), 0.2 mM EGTA, 0.02% β-mercaptoethanol, 0.1 mg ml^−1 BSA, and pre-warmed to 30°C. Reaction was initiated after adding 100 µM phosphopeptides, RRA(pT)VA to obtain a final volume of 50 µL and incubated at 30°C for 15 min. The reaction was stopped by adding 50 µL of molybdate dye/additive mixture and incubated for an additional 15 min at room temperature for color development. Control samples were determined without enzyme.

[7] = biological target: T3, recombinant PxPP5 (Plutella xylostella, UniProt W0FSW2); experiment: Arachidonic acid stimulation assay and kinetics of recombinant PxPP5, pNPP as substrate; format: biochemical
T3 sequence (W0FSW2 1-491): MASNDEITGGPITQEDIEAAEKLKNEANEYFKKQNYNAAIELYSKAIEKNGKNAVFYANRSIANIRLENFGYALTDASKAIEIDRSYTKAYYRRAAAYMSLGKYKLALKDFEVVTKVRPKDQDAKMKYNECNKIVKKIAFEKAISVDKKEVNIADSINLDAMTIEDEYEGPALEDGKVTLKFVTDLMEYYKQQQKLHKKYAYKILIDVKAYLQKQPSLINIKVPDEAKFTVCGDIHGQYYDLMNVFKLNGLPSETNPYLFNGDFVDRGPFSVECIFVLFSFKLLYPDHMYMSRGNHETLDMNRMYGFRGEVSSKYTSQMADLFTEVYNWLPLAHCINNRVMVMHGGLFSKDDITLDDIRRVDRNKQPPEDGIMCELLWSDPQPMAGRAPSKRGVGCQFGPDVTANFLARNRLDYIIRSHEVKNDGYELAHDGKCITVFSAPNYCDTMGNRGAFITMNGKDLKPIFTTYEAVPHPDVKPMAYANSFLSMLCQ
Source text: as §1

[8] = biological target: T3, recombinant PxPP5; experiment: Inhibition assay of recombinant PxPP5 phosphatase activity, pNPP as substrate; format: biochemical
Method: as §1
(§4) Three candidate inhibitors were dissolved in dimethyl sulphoxide (DMSO) to provide stock solutions of 10 mM for okadaic acid, 100 mM for cantharidin, and 200 mM for endothall, respectively. All solutions were diluted to the desired concentrations with assay buffer before use. Assays were carried out using pNPP as substrate for purified proteins or using RRA(pT)VA as substrate for crude PPP extract. Before initiating the reaction, the enzyme was incubated with the chemicals for 5 min at room temperature. A dose-response assay was used to determine the IC50 values. The non-enzyme reaction was taken as the background control, while the non-inhibitor reaction was used as the full-activity control.

[9] = biological target: T2, recombinant MsPP5; experiment: Inhibition assay of recombinant MsPP5 phosphatase activity, pNPP as substrate; format: biochemical
Method: as §1, §4

[10] = biological target: T1, recombinant HaPP5; experiment: Inhibition assay of recombinant HaPP5 phosphatase activity, pNPP as substrate; format: biochemical
Method: as §1, §4

[11] = test system: crude PPP extracts; experiment: Inhibition of phosphatase activity of crude PPP extracts, phosphopeptide RRA(pT)VA as substrate; format: biochemical, H. armigera, M. separata and P. xylostella; settings: treated with 1.0 µM inhibitor, range over three insect extracts
Method: as §2, §3, §4

[12] = test system: three lepidopteran PP5 proteins; experiment: Inhibition of the three recombinant lepidopteran PP5 proteins (stated jointly), pNPP as substrate; format: biochemical, H. armigera, M. separata and P. xylostella; settings: range over HaPP5, MsPP5 and PxPP5
Method: as §1, §4

[13] = test system: E. chinensis PP5; parameters: method as in PMID 24351830; settings: cited from earlier work
[14] = substrate: O=[N+]([O-])c1ccc(OP(=O)(O)O)cc1; experiment: purified protein, by the assay type; settings: pH 7.5; 30.0 °C
[15] = 0.25 h, up to, dose dependent, maximum activation at 150 µM
[16] = addition of 150 µM arachidonic acid
[17] = up to, dose dependent, maximum activation at 150 µM, 15 min, 150 µM

CCCCC/C=C\C/C=C\C/C=C\C/C=C\CCCC(=O)O [arachidonic acid]
maximal fold induction at 150 µM [1, 15]: ~2 | Elevation of Vmax value of HaPP5 [1, 16]: 1.33 fold | Reduction of Km value of HaPP5 [1, 16]: 2.07 fold | Stimulation of activity of recombinant HaPP5 [1, 17]: up to 1.78 fold | Maximum activation of E. coli expressed PP5 from P. falciparum [2]: 2.0 fold | Maximum activation of E. coli expressed PP5 from E. chinensis [3]: 2.3 fold | maximal fold induction at 150 µM [4, 15]: ~2 | Elevation of Vmax value of MsPP5 [4, 16]: 1.54 fold | Reduction of Km value of MsPP5 [4, 16]: 1.86 fold | Stimulation of activity of recombinant MsPP5 [4, 17]: ≤ 1.99 fold | Maximum activation of E. coli expressed PP5 from T. brucei [5]: 2.6 fold | Stimulation of phosphatase activity of total crude extracts [6]: no significant stimulation | maximal fold induction at 150 µM [7, 15]: ~2 | Elevation of Vmax value of PxPP5 [7, 16]: 1.26 fold | Reduction of Km value of PxPP5 [7, 16]: 2.16 fold | Stimulation of activity of recombinant PxPP5 [7, 17]: ≤ 1.81 fold

C[C@@]12C(=O)OC(=O)[C@]1(C)[C@H]1CC[C@@H]2O1 [cantharidin]
IC50 [8]: 730 ± 270 nM | IC50 [9]: 2380 ± 480 nM | IC50 [10]: 1280 ± 310 nM | Residual phosphatase activities of the three crude extracts [11]: 57.65–61.23% | IC50 [12]: 730 to 2380 nM

O=C(O)[C@@H]1[C@H](C(=O)O)[C@H]2CC[C@@H]1O2 [endothall]
IC50 [8]: 6840 ± 470 nM | IC50 [9]: 12600 ± 1620 nM | IC50 [10]: 19300 ± 2340 nM | Residual phosphatase activities of the three crude extracts [11]: 83.77–87.66%

C=C1[C@@H](O)[C@@H]2O[C@]3(CC[C@H](/C=C/[C@@H](C)[C@@H]4CC(C)=C[C@@]5(O[C@H](C[C@@](C)(O)C(=O)O)CC[C@H]5O)O4)O3)CC[C@H]2O[C@@H]1[C@@H](O)C[C@H](C)[C@H]1O[C@@]2(CCCCO2)CC[C@H]1C [okadaic acid]
IC50 [8]: 25 ± 1.64 nM | IC50 [9]: 17.6 ± 3.2 nM | IC50 [13]: 190 nM | IC50 [10]: 41.8 ± 3.31 nM | Residual phosphatase activities of the three crude extracts [11]: 16.37–18.89%

B1: PxPP5 (Plutella xylostella) (protein)
chain: T3 sequence (W0FSW2 1-491)
Km [14]: 8.83 ± 0.75 mM

B2: HaPP5 (Helicoverpa armigera) (protein)
chain: T1 sequence (A0A059TAS5 1-490)
Km [14]: 8.64 ± 0.95 mM

B3: MsPP5 (Mythimna separata) (protein)
chain: T2 sequence (A0A059TAW5 1-490)
Km [14]: 9.01 ± 0.51 mM
